Here are results for nine compounds from patent US10392422B2, “Macrocyclic broad spectrum antibiotics” (priority 2014, dated 2019).

Values after ≈ are worked out from the molar mass of the structure shown. Where two headings read alike, the source gives them in different places.

One assay has as its system MRSA COL (NRS100). Kind of assay: MIC, broth micro-dilution technique (CLSI). Type of assay: cell-based, Staphylococcus aureus. Particulars: for MIC: Staphylococcus aureus, 22 h, read-out: MIC (μg/mL) (COL). An outline of the steps:
(§1)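 Cation-adjusted MHB + 0.002% Tween-80; 10-point 2-fold series starting 64 μg/ml (modified protocol: 4 μg/mL). Final inoculum OD600 0.0005; 35° C, 22 h. MIC per CLSI M07-A8 broth microdilution.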

The test system of assay [1] is Methicillin Resistant Staphylococcus aureus strain USA 300 (NRS384). Kind of assay: MIC, broth micro-dilution technique (CLSI). Particulars: for MIC: Staphylococcus aureus, 22 h, read-out: MIC (μg/mL) S. aureus. Type of assay: cell-based. The procedure, abridged: as §1
The test system of assay [2] is Escherichia coli MC4100 harboring the IMP4213. Kind of assay: MIC, broth micro-dilution technique (CLSI). Type of assay: cell-based. Particulars: 35° C., 22 hours; for MIC: Escherichia coli, 22 h. The procedure, abridged: as §1
The next assay deals with MRSA strain COL. Description: Neutropenic thigh infection model, intravenous infusion. Type of assay: in vivo, CD-1 mice. The conditions noted are these: Compound 115 (Css 2 or 6.4 ug/mL) co-dosed with imipenem (Css 0.3 μg/mL), infused 23 hours; 24 hours post infection; compared with either single agent; FIG. 3. The protocol:
Jugular vein cannulated CD-1 mice were subjected to induced neutropenia (<100 cells/mm^3) by injecting 150 mg/kg and 100 mg/kg cyclophosphamide at day −5 and day −2 respectively. At day −1, saline was infused at […] for 12 hours using Harvard Apparatus PHD 2000 Infusion pumps. At day 0, mice were infected in the thigh muscle with MRSA strain COL 4×10^5 CFU/50 μL. Four test groups and one vehicle group began dosing at 1 hour post infection:
Group 1 was the vehicle control (3% HP-beta-cyclodextrin in PBS)
Group 2 was the imipenem (Imp) group dosed at a concentration of 0.21 mg/mL solution, infused at 80 μL/hour for 23 hours, with a target steady-state concentration (Css) of 0.3 μg/mL.
Group 3 was the SpsB inhibitor Compound 115 group dosed at a concentration of 2.14 mg/mL solution, infused at 80 μL/hour for 23 hours to achieve a steady state concentration (Css) of 6.4 ug/mL.
Group 4 was the SpsB inhibitor Compound 115 group dosed at 0.67 mg/mL solution (Css 2 ug/mL) co-dosed with imipenem at a concentration of 0.21 mg/mL (Css of 0.3 μg/mL) infused at 80 μL/hour for 23 hours. […]
At 24 hours post infection, bacterial burden in the thigh muscle was determined by plating the tissue homogenate in series dilutions on blood agar plates. […]

Setting [3] is: read-out: MIC (μg/mL) E. coli, Table 1 protocol: serial 2-fold dilutions starting from 64 μg/ml.
The mark [4] stands for this setting: Table 1 protocol: serial 2-fold dilutions starting from 64 μg/ml, 35° C., 22 hours.
Setting [5] is: Table 2 modified protocol: serial 2-fold dilutions starting from 4 μg/mL, 35° C., 22 hours.
[6] abbreviates: read-out: MIC (μg/mL) E. coli, Table 2 modified protocol: serial 2-fold dilutions starting from 4 μg/mL.

Regarding `CCCCCCCCCCNCCC(=O)N[C@@H](CCCCN)C(=O)N(C)[C@@H]1C(=O)N[C@@H](C)C(=O)N[C@H](C(=O)N[C@@H](C)C(C)=O)Cc2ccc(O)c(c2)-c2cc1ccc2OCCN` [Compound 115], the MIC in the assay on MRSA COL (NRS100) was found to be 0.13 µg/mL (≈ 0.15 µM); in assay [1], 0.63 µg/mL (≈ 0.728 µM); in assay [2] (setting [3]), 19 µg/mL (≈ 22 µM). The “bacterial burden in the thigh muscle” value in the assay with MRSA strain COL is “greater reduction in bacterial burden”.

As to `CC(=O)[C@H](C)NC(=O)[C@@H]1Cc2ccc(O)c(c2)-c2cc(cc3cc(CN)oc23)[C@H](N(C)C(=O)[C@H](CCCCN)NC(=O)c2ccc(-c3ccc(Cl)cc3)cc2)C(=O)N[C@@H](C)C(=O)N1` [Compound 212], the figures for the MIC (in the assay on MRSA COL (NRS100) (setting [4]); in assay [1] (setting [4]); in assay [2] (setting [3])) were 0.5 µg/mL (≈ 0.569 µM), 2.5 µg/mL (≈ 2.85 µM) and 5.7 µg/mL (≈ 6.49 µM), respectively.

As to `C[C@@H]1NC(=O)[C@@H](N(C)C(=O)[C@H](CCCCN)NC(=O)c2ccc(-c3ccc(Cl)cc3)cc2)c2ccc(O)c(c2)-c2cc(ccc2O)C[C@@H](C(=O)NCC(=O)c2ncc[nH]2)NC1=O` [Compound 245], the MIC is 2 µg/mL (≈ 2.32 µM) in the assay with MRSA COL (NRS100) (setting [5]), 4 µg/mL (≈ 4.63 µM) in assay [1] (setting [5]) and greater than 4 µg/mL in assay [2] (setting [6]).

In the case of `CCCCCCCCCCNCC(=O)N[C@@H](CCCCN)C(=O)N(C)[C@@H]1C(=O)N[C@@H](C)C(=O)N[C@H](C(=O)N[C@@H](C)C(C)=O)Cc2ccc(O)c(c2)-c2cc1ccc2O` [Compound 112], the “MIC (μg/mL) (COL)” value against MRSA COL (NRS100) (setting [4]) came to 0.5 µg/mL (≈ 0.619 µM). Moreover, the “MIC (μg/mL) S. aureus” value in assay [1] (setting [4]) is 2.8 µg/mL (≈ 3.47 µM). Further, the “MIC (μg/mL) E. coli” value in assay [2] (Table 1 protocol: serial 2-fold dilutions starting from 64 μg/ml) turned out to be 64 µg/mL (≈ 79.2 µM).

On to `CCCCCCCCc1ccc(C(=O)N[C@@H](CCCN)C(=O)N(C)[C@@H]2C(=O)N[C@@H](C)C(=O)N[C@H](C(=O)O)Cc3ccc(OCCN)c(c3)-c3cc2ccc3OCCN)c(F)c1` [Compound 297], for which the MIC with MRSA COL (NRS100) is 0.063 µg/mL (≈ 0.0743 µM); in assay [1], 0.38 µg/mL (≈ 0.448 µM); in assay [2] (setting [3]), 0.063 µg/mL (≈ 0.0743 µM).

For `CCCCCCCCCNCCCS(=O)(=O)N[C@@H](CCCCN)C(=O)N(C)[C@@H]1C(=O)N[C@@H](C)C(=O)N[C@H](C(=O)N[C@@H](C)C(C)=O)Cc2ccc(O)c(c2)-c2cc1ccc2O` [Compound 217], the MIC in the assay on MRSA COL (NRS100) (setting [4]) was 0.75 µg/mL (≈ 0.874 µM); in assay [1] (setting [4]), 2 µg/mL (≈ 2.33 µM); in assay [2] (setting [3]), greater than 64 µg/mL.

Regarding `C[C@@H]1NC(=O)[C@@H](N(C)C(=O)[C@H](CCCCN)NC(=O)c2ccc(-c3ccc(Cl)cc3)cc2)c2ccc(OCCN)c(c2)-c2cc(ccc2OCCN)C[C@@H](C(=O)N[C@@H](C)C(=O)c2c([N+](=O)[O-])cnn2C)NC1=O` [Compound 276], the “MIC (μg/mL) (COL)” value against MRSA COL (NRS100) (setting [5]) came to 1.5 µg/mL (≈ 1.47 µM). Further, the “MIC (μg/mL) S. aureus” value in assay [1] (setting [5]) amounted to 4 µg/mL (≈ 3.91 µM). Further, the “MIC (μg/mL) E. coli” value in assay [2] (Table 2 modified protocol: serial 2-fold dilutions starting from 4 μg/mL) was 4 µg/mL (≈ 3.91 µM).

`CCCCCCCCc1ccc(C(=O)N[C@@H](CCCN)C(=O)N(C)[C@@H]2C(=O)N[C@@H](C)C(=O)N[C@H](C(=O)N[C@@H](C)B(O)O)Cc3ccc(OCCN)c(c3)-c3cc2ccc3OCCN)c(F)c1` [Compound 322]: the MIC in the assay with MRSA COL (NRS100) (setting [4]) was determined as 0.063 µg/mL (≈ 0.0686 µM); in assay [1] (setting [4]) it was 0.13 µg/mL (≈ 0.141 µM); in assay [2] (setting [3]), 0.13 µg/mL (≈ 0.141 µM).

In the case of `CCCCCCCCCCNCCC(=O)N[C@@H](CCCCN)C(=O)N(C)[C@@H]1C(=O)N[C@@H](C)C(=O)N[C@H](C(=O)N[C@@H](C)C(C)=O)Cc2ccc(O)c(c2)-c2cc1ccc2OC1O[C@H](CO)[C@@H](O)[C@H](O)[C@H]1N` (stereo partly shown) [Compound 339], the MIC in the assay with MRSA COL (NRS100) is 1 µg/mL (≈ 1.02 µM); in assay [1] it was 2 µg/mL (≈ 2.03 µM); in assay [2] (setting [6]), greater than 4 µg/mL.
